In patent publication US20230192703A1, “Polycyclic amide derivative as CDK9 inhibitor, preparation method therefor and use thereof” (Suzhou AlphaMa Biotechnology Co., Ltd., priority 2020, published 2023):
One block for each compound: values may come before it.

Legend:
CDK9 kinase = biological target: T1, CDK9 kinase (Homo sapiens, UniProt P50750); assay: Inhibitory effect on the kinase activity of CDK9 in vitro; assay type: biochemical; conditions: CDK9 kinase (Millipore), CTD3 substrate polypeptide, Caliper
T1 construct: purchased Millipore 14-685M
Method: The detection of the inhibitory effect of the compounds of the present disclosure on the kinase activity of CDK9 in vitro was determined by the following method:
Compound preparation: The compound was accurately weighed and dissolved in DMSO (Sigma, D2650) to a concentration of 100 um for later use. The compound was diluted to 5-fold of a desired highest concentration, and diluted 4-fold into 6 concentration gradients, allowing the final concentration of the compound in the reaction system to be 100, 25, 6.25, 1.56, 0.39, 0.098 nM. 5 ul was taken to a 384-well plate (Corning, 4512).
Detection: Data was collected by Caliper.
Calculation: The IC50 value was calculated by Graphpad prism 5.0 software according to the concentration of the compound and the corresponding signal value.

Mv4-11 cells = assay: Inhibition of the proliferation of Mv4-11 cells (CCK8); assay type: cell-based; conditions: Mv4-11 cell proliferation, CCK8 OD450
Method: The inhibition effect of the compounds of the present disclosure on the proliferation of Mv4-11 cells (ATCC:CRL-9591TM) in vitro was determined by the following method:
Cell inoculation: Mv4-11 cells with good growing state in logarithmic growth phase were inoculated into a 96-well plate at 20000 cells per well and 50 uL, and cultured at 37° C. and under 5% CO2 condition for 2-4 h. Administration: The compound was diluted with 1640 medium containing 10% FBS and 1% PS: 0.4 uL of the compound with an initial concentration of 1 mM was placed in a dilution plate, each added with 199.6 uL of the above culture medium, and gradiently diluted 4-fold, so that the final concentration in the added cell was 1000, 250, 62.5, 15.625, 3.91, 0.98, 0.24, 0.06 nM. 50 μL of the medium containing the compound was sequentially added, and it was placed in a 37° C., 5% CO2 cell incubator for 48 hours.
Detection: 10 uL CCK8 (Dojindo, CK 04) solution was added to each well, incubated in 37° C. 5% CO2 cell incubator for 2 hours, and then the OD450 value was read by Synegry H1 (BioTek) multimode microplate reader.
Calculation: The IC50 value was calculated using Graphpad prism 5.0 software according to the concentration of the compound and the corresponding signal value.

T1 sequence (P50750 whole entry): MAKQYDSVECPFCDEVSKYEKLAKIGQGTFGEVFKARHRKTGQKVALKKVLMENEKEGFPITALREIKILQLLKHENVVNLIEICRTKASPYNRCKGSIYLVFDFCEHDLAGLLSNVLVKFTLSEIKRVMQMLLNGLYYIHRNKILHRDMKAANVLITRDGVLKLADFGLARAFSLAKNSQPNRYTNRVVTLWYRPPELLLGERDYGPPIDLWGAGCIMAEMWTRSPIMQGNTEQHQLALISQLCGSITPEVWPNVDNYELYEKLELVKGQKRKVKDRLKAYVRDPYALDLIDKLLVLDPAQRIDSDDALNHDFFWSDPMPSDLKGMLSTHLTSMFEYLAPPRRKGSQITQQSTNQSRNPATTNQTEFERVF
T1 sequence (O60563 whole entry partner): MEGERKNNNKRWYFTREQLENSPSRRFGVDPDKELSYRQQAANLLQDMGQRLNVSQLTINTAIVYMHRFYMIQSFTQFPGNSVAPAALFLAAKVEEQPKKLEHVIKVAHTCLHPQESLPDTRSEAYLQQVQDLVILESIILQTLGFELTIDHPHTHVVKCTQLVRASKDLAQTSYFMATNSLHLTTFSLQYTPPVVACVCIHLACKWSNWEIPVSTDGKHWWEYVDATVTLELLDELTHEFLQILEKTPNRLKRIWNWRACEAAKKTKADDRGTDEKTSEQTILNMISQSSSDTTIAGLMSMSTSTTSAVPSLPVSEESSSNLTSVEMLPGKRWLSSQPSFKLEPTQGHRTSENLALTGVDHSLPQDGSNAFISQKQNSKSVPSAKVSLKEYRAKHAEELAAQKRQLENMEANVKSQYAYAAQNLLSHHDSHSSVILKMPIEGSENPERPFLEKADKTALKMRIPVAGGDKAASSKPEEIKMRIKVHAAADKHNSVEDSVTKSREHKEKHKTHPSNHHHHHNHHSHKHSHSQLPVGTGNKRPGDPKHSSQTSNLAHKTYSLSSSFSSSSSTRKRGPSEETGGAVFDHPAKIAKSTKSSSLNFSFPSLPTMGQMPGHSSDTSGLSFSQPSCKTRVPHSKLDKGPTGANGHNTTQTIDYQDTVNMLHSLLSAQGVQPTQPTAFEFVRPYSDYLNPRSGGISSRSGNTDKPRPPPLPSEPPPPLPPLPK

Structure (SMILES): CC(=O)N[C@@H]1CCC[C@H](C(=O)Nc2cc(-c3cnn4c3CC(C)(C)C4)c(C(F)(F)F)cn2)C1 [Compound 30, (1S,3R)-3-acetamido-N-(4-(5,5-dimethyl-5,6-dihydro-4H-pyrrolo[1,2-b]pyrazol-3-yl)-5-(trifluoromethyl)pyridin-2-yl)cyclohexane-1-carboxamide]
IC50 (CDK9 kinase): 6.3 nM
IC50 (Mv4-11 cells; Homo sapiens, MV4-11, 48 h): 15.3 nM

Structure (SMILES): CC(=O)N[C@H]1C[C@@H]2C[C@H](C(=O)Nc3cc(-c4cc(C#N)n5c4CC(C)(C)C5)c(Cl)cn3)C[C@@H]2C1 (single isomer, unassigned) [Compound 14-2-1]
IC50 (CDK9 kinase): 4.3 nM
IC50 (Mv4-11 cells; Homo sapiens, MV4-11, 48 h): 10.6 nM

Structure (SMILES): CC(=O)N1C[C@H]2CC(C(=O)Nc3cc(-c4cc(C(N)=O)n5c4CC(C)(C)C5)c(Cl)cn3)C[C@H]2C1 (single isomer, unassigned) [Compound 8-1]
IC50 (CDK9 kinase): 3.5 nM
IC50 (Mv4-11 cells; 48 hours): 7.7 nM

Structure (SMILES): CC(=O)N[C@H]1C[C@@H]2C[C@@H](C(=O)Nc3cc(-c4cc(C#N)n5c4CC(C)(C)C5)c(Cl)cn3)C[C@@H]2C1 (single isomer, unassigned) [Compound 14-1-1]
IC50 (Mv4-11 cells; Homo sapiens, MV4-11, 48 h): 23.9 nM

Structure (SMILES): CC(=O)N[C@@H]1CCC[C@H](C(=O)Nc2cc(-c3cc(C(N)=O)c4n3CC(C)(C)C4)c(Cl)cn2)C1 [Compound 17, 5-(2-((1S,3R)-3-acetylaminocyclohexane-1-carboxamido)-5-chloropyridin-4-yl)-2,2-dimethyl-2,3-dihydro-1H-pyrrolizine-7-carboxamide]
IC50 (CDK9 kinase): 4.9 nM
IC50 (Mv4-11 cells; Homo sapiens, MV4-11, 48 h): 36.1 nM

Structure (SMILES): CC(=O)N[C@@H]1CCC[C@H](C(=O)Nc2cc(-c3cc(C#N)c4n3CC(C)(C)C4)c(Cl)cn2)C1 [Compound 16, (1S,3R)-3-acetamido-N-(5-chloro-4-(7-cyano-2,2-dimethyl-2,3-dihydro-1H-pyrrolizin-5-yl)pyridin-2-yl)cyclohexane-1-carboxamide]
IC50 (CDK9 kinase): 2.9 nM

Structure (SMILES): CC(=O)N[C@@H]1CCC[C@H](C(=O)Nc2cc(-c3cc(C#N)n4c3CC(C)(C)C4)c(Cl)cn2)C1 [Compound 1, (1S,3R)-3-acetamido-N-(5-chloro-4-(5-cyano-2,2-dimethyl-2,3-dihydro-1H-pyrrolizin-7-yl)pyridin-2-yl)cyclohexane-1-carboxamide]
IC50 (CDK9 kinase): 2.1 nM
IC50 (Mv4-11 cells; Homo sapiens, MV4-11, 48 h): 1.6 nM

Structure (SMILES): CC(=O)N[C@@H]1CCC[C@H](C(=O)Nc2cc(-c3cc(C(N)=O)c4n3CC(C)(C)C4)ccn2)C1 [Compound 28, 5-(2-((1S,3R)-3-acetylaminocyclohexane-1-carboxamido)pyridin-4-yl)-2,2-dimethyl-2,3-dihydro-1H-pyrrolizine-7-carboxamide]
IC50 (Mv4-11 cells; Homo sapiens, MV4-11, 48 h): 36.5 nM

Structure (SMILES): CC(=O)N[C@@H]1CCC[C@H](C(=O)Nc2cc(-c3cc(C#N)n4c3CC(C)(C)C4)c(F)cn2)C1 [Compound 10, (1S,3R)-3-acetamido-N-(4-(5-cyano-2,2-dimethyl-2,3-dihydro-1H-pyrrolizin-7-yl)-5-fluoropyridin-2-yl)cyclohexane-1-carboxamide]
IC50 (Mv4-11 cells; Homo sapiens, MV4-11, 48 h): 26.9 nM

Structure (SMILES): CC(=O)N1C[C@H]2C[C@H](C(=O)Nc3cc(-c4cnn5c4CC(C)(C)C5)c(Cl)cn3)C[C@H]2C1 [Compound 4-1, (3aR,5s,6aS)-2-acetyl-N-(5-chloro-4-(5,5-dimethyl-5,6-dihydro-4H-pyrrolo[1,2-b]pyrazol-3-yl)pyridin-2-yl)octahydrocyclopenta[c]pyrrole-5-carboxamide]
IC50 (Mv4-11 cells; Homo sapiens, MV4-11, 48 h): 14.8 nM

Structure (SMILES): CC(=O)N[C@@H]1CCC[C@H](C(=O)Nc2cc(-c3cc(C(N)=O)n4c3CC(C)(C)C4)c(F)cn2)C1 [Compound 33, 7-(2-((1S,3R)-3-acetylaminocyclohexane-1-carboxamido)-5-fluoropyridin-4-yl)-2,2-dimethyl-2,3-dihydro-1H-pyrrolizine-5-carboxamide]
IC50 (Mv4-11 cells; Homo sapiens, MV4-11, 48 h): 1.3 nM

Structure (SMILES): CC(=O)N1C[C@H]2C[C@@H](C(=O)Nc3cc(-c4cc(C#N)n5c4CC(C)(C)C5)c(Cl)cn3)C[C@H]2C1 [Compound 7-2, (3aR,5r,6aS)-2-acetyl-N-(5-chloro-4-(5-cyano-2,2-dimethyl-2,3-dihydro-1H-pyrrolizin-7-yl)pyridin-2-yl)octahydrocyclopenta[c]pyrrole-5-carboxamide]
IC50 (Mv4-11 cells; Homo sapiens, MV4-11, 48 h): 8.6 nM

Structure (SMILES): CC(=O)N[C@@H]1C[C@@H]2C[C@@H](C(=O)Nc3cc(-c4cc(C#N)n5c4CC(C)(C)C5)c(Cl)cn3)C[C@@H]2C1 (single isomer, unassigned) [Compound 14-1-2]
IC50 (Mv4-11 cells; Homo sapiens, MV4-11, 48 h): 11.1 nM

Structure (SMILES): CC(=O)N[C@@H]1CCC[C@H](C(=O)Nc2cc(-c3cc(C#N)n4c3CC(C)(C)C4)ccn2)C1 [Compound 11, (1S,3R)-3-acetamido-N-(4-(5-cyano-2,2-dimethyl-2,3-dihydro-1H-pyrrolizin-7-yl)pyridin-2-yl)cyclohexane-1-carboxamide]
IC50 (Mv4-11 cells; Homo sapiens, MV4-11, 48 h): 2.2 nM

Next, values leading:

IC50 (Mv4-11 cells; Homo sapiens, MV4-11, 48 h): 68.5 nM
Structure (SMILES): CC1(C)Cc2c(-c3cc(NC(=O)[C@H]4CCC[C@H](c5ccncc5)C4)ncc3Cl)cnn2C1 (single isomer, unassigned) [Compound 21-1]

IC50 (CDK9 kinase): 28.6 nM
IC50 (Mv4-11 cells; Homo sapiens, MV4-11, 48 h): 352 nM
Structure (SMILES): CC1(C)Cc2c(-c3cc(NC(=O)[C@H]4CCC[C@H](c5cccnc5)C4)ncc3Cl)cnn2C1 (single isomer, unassigned) [Compound 20-1]

IC50 (CDK9 kinase): 4.9 nM
IC50 (Mv4-11 cells; Homo sapiens, MV4-11, 48 h): 2.3 nM
Structure (SMILES): CC(=O)N[C@H]1C[C@@H]2C[C@@H](C(=O)Nc3cc(-c4cc(C(N)=O)n5c4CC(C)(C)C5)c(F)cn3)C[C@@H]2C1 [Compound 34-1, 7-(2-((2r,3aR,5s,6aS)-5-acetylaminooctahydropentalene-2-carboxamido)-5-fluoropyridin-4-yl)-2,2-dimethyl-2,3-dihydro-1H-pyrrolizine-5-carboxamide]

IC50 (Mv4-11 cells; Homo sapiens, MV4-11, 48 h): 9 nM
Structure (SMILES): CC(=O)N[C@@H]1C[C@@H]2C[C@H](C(=O)Nc3cc(-c4cc(C(N)=O)n5c4CC(C)(C)C5)c(F)cn3)C[C@@H]2C1 [Compound 34-2, 7-(2-((2s,3aR,5r,6aS)-5-acetylaminooctahydropentalene-2-carboxamido)-5-fluoropyridin-4-yl)-2,2-dimethyl-2,3-dihydro-1H-pyrrolizine-5-carboxamide]

IC50 (CDK9 kinase): 2.8 nM
IC50 (Mv4-11 cells; Homo sapiens, MV4-11, 48 h): 6.3 nM
Structure (SMILES): CC1(C)Cc2c(-c3cc(NC(=O)[C@H]4CCC[C@@H](c5ccncc5)C4)ncc3Cl)cnn2C1 (single isomer, unassigned) [Compound 21-3]

IC50 (Mv4-11 cells; Homo sapiens, MV4-11, 48 h): 71.9 nM
Structure (SMILES): CC1(C)Cc2c(-c3cc(NC(=O)[C@@H]4CCC[C@@H](c5ccncc5)C4)ncc3Cl)cnn2C1 (single isomer, unassigned) [Compound 21-4]

IC50 (CDK9 kinase): 2.8 nM
IC50 (Mv4-11 cells; 48 hours): 0.9 nM
Structure (SMILES): CC(=O)N1C[C@H]2CC(C(=O)Nc3cc(-c4cc(C(N)=O)n5c4CC(C)(C)C5)ccn3)C[C@H]2C1 (single isomer, unassigned) [Compound 32-2]

IC50 (CDK9 kinase): 3.8 nM
IC50 (Mv4-11 cells; Homo sapiens, MV4-11, 48 h): 5.9 nM
Structure (SMILES): CC(=O)N[C@H]1C[C@@H]2C[C@@H](C(=O)Nc3cc(-c4cc(C(N)=O)n5c4CC(C)(C)C5)c(Cl)cn3)C[C@@H]2C1 (single isomer, unassigned) [Compound 24-1]

IC50 (CDK9 kinase): 3.5 nM
IC50 (Mv4-11 cells; 48 hours): 5.1 nM
Structure (SMILES): CNC(=O)C1C[C@@H]2CC(C(=O)Nc3cc(-c4cc(C(N)=O)n5c4CC(C)(C)C5)c(Cl)cn3)C[C@@H]2C1 (single isomer, unassigned) [Compound 26-2]

IC50 (CDK9 kinase): 7 nM
IC50 (Mv4-11 cells; Homo sapiens, MV4-11, 48 h): 15 nM
Structure (SMILES): CC1(C)Cc2c(-c3cc(NC(=O)[C@@H]4CCC[C@H](c5cccnc5)C4)ncc3Cl)cnn2C1 (single isomer, unassigned) [Compound 20-2]

IC50 (CDK9 kinase): 2.9 nM
IC50 (Mv4-11 cells; Homo sapiens, MV4-11, 48 h): 4.1 nM
Structure (SMILES): CNC(=O)C1C[C@@H]2CC(C(=O)Nc3cc(-c4cc(C(N)=O)n5c4CC(C)(C)C5)c(Cl)cn3)C[C@@H]2C1 (single isomer, unassigned) [Compound 26-1]

IC50 (CDK9 kinase): > 100 nM
IC50 (Mv4-11 cells; Homo sapiens, MV4-11, 48 h): > 1000 nM
Structure (SMILES): CC1(C)Cc2c(-c3cc(NC(=O)[C@H]4CCC[C@@H](c5cccnc5)C4)ncc3Cl)cnn2C1 (single isomer, unassigned) [Compound 20-3]

IC50 (Mv4-11 cells; Homo sapiens, MV4-11, 48 h): 16.2 nM
Structure (SMILES): CC1(C)Cc2c(-c3cc(NC(=O)[C@@H]4CCC[C@H](c5ccncc5)C4)ncc3Cl)cnn2C1 (single isomer, unassigned) [Compound 21-2]

IC50 (CDK9 kinase): 5.5 nM
IC50 (Mv4-11 cells; Homo sapiens, MV4-11, 48 h): 12.2 nM
Structure (SMILES): CC(=O)N1CC[C@@]2(CC[C@@H](C(=O)Nc3cc(-c4cnn5c4CC(C)(C)C5)c(Cl)cn3)C2)C1 (single isomer, unassigned) [Compound 19-1]

IC50 (Mv4-11 cells; Homo sapiens, MV4-11, 48 h): 4.2 nM
Structure (SMILES): CC(=O)N[C@@H]1CCC[C@H](C(=O)Nc2cc(-c3cnn4c3CC(C)(C)C4)c(Cl)cn2)C1 [AZD4573, reference compound]

IC50 (Mv4-11 cells; Homo sapiens, MV4-11, 48 h): 84.2 nM
Structure (SMILES): CC(=O)N1CC[C@]2(CC[C@H](C(=O)Nc3cc(-c4cnn5c4CC(C)(C)C5)c(Cl)cn3)C2)C1 (single isomer, unassigned) [Compound 19-2]
